The values that follow come from patent US7553505B2, “Health care product containing isoflavone aglycones and method of producing the same” (The Hong Kong University of Science and Technology, priority 2006, dated 2009).

For data set [1] the following is noted: Mitchell et al., 1998; Setchell et al., 2003; cited from earlier work.
A short description of data set [2]: Solubility in alcohol against temperature (FIG. 2). Type of data set: physicochemical. The note with it: within the specific temperature range of FIG. 2. The text has this: FIG. 2 is a diagram showing the solubilities of genistein and daidzein in methanol against temperature.
The first step of the method as described above is extraction. This process of grinding starting materials disrupts their tissue structure to enable the isoflavone fractions more easily extracted by the organic solvent. Then, an organic solvent, preferably ethanol, is used to recover isoflavones based on the high solubilities and steadiness of isoflavones in the selected solvents. […] Ethanol (edible alcohol) is preferred in this invention to ensure the isoflavone product will not endanger human health even with the remains of solvent. The extraction is carried out at a temperature ranging from 40 to 90° C. for 2-24 hrs, with the material ratio (volume:weight) of solvent to flour between 1:1 and 10:1 (mL:g).

Structures are written as SMILES.

As for `O=c1c(-c2ccc(O)cc2)coc2cc(O)cc(O)c12` [genistein, Genistein], in data set [1], the “biological activities among the twelve soy isoflavones” value is listed as “highest biological activities”. For the same compound, in data set [2], the “solubility in alcohol including methanol and ethanol versus temperature” value is “increase evidently with increasing temperature”.
